Experimental data from PMC9851200, “Multiparameter phenotypic screening for endogenous TFEB and TFE3 translocation identifies novel chemical series modulating lysosome function” (Autophagy, 2022).
Read-outs that look alike come from different tables or passages of the source.

Legend:
SH-SY5Y cells [1] = tested on: SH-SY5Y cells; also: reference of the scale not given here
SH-SY5Y cells [2] = assay: Nuclear count from microscopy images (cellular growth and toxicity); also: reference of the scale not given here
endogenous TFEB = assay: TFEB nuclear translocation, immunocytochemistry high-content imaging; assay type: cell-based
endogenous TFE3 = assay: TFE3 nuclear translocation, immunocytochemistry high-content imaging; assay type: cell-based
SH-SY5Y cells [3] = assay: AK (adenylate kinase) release ToxiLight cytotoxicity assay; also: reference of the scale not given here
[4] = PKIS2 primary screen, DQ Red BSA intensity
[5] = PKIS2 primary screen, DQ Red BSA spot count
[6] = PKIS2 primary screening, DQ Red BSA intensity
[7] = PKIS2 primary screening, DQ Red BSA spot count

Compound | DQ Intensity (SH-SY5Y cells [1]; PKIS2 primary screening) | DQ Spot (SH-SY5Y cells [1]; PKIS2 primary screening) | Nuclear Count (SH-SY5Y cells [2]; PKIS2 primary screening) | TFEB % (endogenous TFEB; PKIS2 primary screening) [%] | TFE3 % (endogenous TFE3; PKIS2 primary screening) [%] | AK (SH-SY5Y cells [3]; PKIS2 primary screening) | DQ Intensity (SH-SY5Y cells [1]; [4]) | DQ Spot (SH-SY5Y cells [1]; [5]) | Nuclear Count (SH-SY5Y cells [2]; PKIS2 primary screen) | TFEB % (endogenous TFEB; PKIS2 primary screen) [%] | TFE3 % (endogenous TFE3; PKIS2 primary screen) [%] | AK (SH-SY5Y cells [3]; PKIS2 primary screen) | DQ Intensity (SH-SY5Y cells [1]; [6]) | DQ Spot (SH-SY5Y cells [1]; [7])
CCn1c(-c2ccccn2)nc2cnccc21 [UNC10225156A] | 124.07 | 112.23 | 94.90 | 4.22 | 11.71 | 96.85 | – | – | – | – | – | – | – | –
O=c1[nH]cc(-c2ccc(N3CCOCC3)cc2)c2sc(-c3cn[nH]c3)cc12 [UNC10225158A] | – | – | – | – | – | – | 68.86 | 89.34 | 78.86 | 7.60 | 10.30 | 90.80 | – | –
Fc1ccc(-c2nc3n(c2-c2ccncc2)CCS3)cc1 [UNC10225163A] | – | – | 90.62 | 3.29 | 5.95 | 64.81 | – | – | – | – | – | – | 100.39 | 119.65
Cn1cc(-c2ccc3c(c2)CCN3C(=O)Cc2cccc(C(F)(F)F)c2)c2c(N)ncnc21 [UNC10225165A] | 124.78 | 91.55 | 103.31 | 6.03 | 14.20 | 93.68 | – | – | – | – | – | – | – | –
O=c1[nH]cc(-c2ccc(O)cc2)c2sc(-c3ccncc3)cc12 [UNC10225166A] | – | – | – | – | – | – | 80.95 | 75.27 | 145.07 | 3.69 | 6.08 | 95.26 | – | –
c1ccc(-c2cc(-c3c[nH]nc3-c3ccccn3)ccn2)cc1 [UNC10225169A] | – | – | 139.75 | 2.50 | 6.57 | 72.24 | – | – | – | – | – | – | 83.52 | 97.79
Cn1cc(-c2ccc3c(c2)CCN3C(=O)Cc2ccccc2Cl)c2c(N)ncnc21 [UNC10225172A] | 88.08 | 66.39 | 63.66 | 8.22 | 8.56 | 106.54 | – | – | – | – | – | – | – | –
Nc1nccc(-c2c(-c3ccc(F)cc3)ncn2C2CCN(CC(F)(F)F)CC2)n1 [UNC10225173A] | 90.34 | 99.50 | 107.53 | 11.13 | 11.80 | 117.50 | – | – | – | – | – | – | – | –
O=C(Nc1cccc(-c2nn3ncccc3c2-c2ccnc(Nc3cccc(C(F)(F)F)c3)n2)c1)c1c(F)cccc1F [UNC10225174A] | 102.81 | 113.18 | 93.11 | 2.89 | 11.86 | 107.72 | – | – | – | – | – | – | – | –
Cc1nn2c(=O)cc(N3CCOCC3)nc2n1Cc1cccc(Cl)c1Cl [UNC10225178A] | 66.02 | 117.74 | 93.42 | 7.97 | 28.29 | 116.91 | – | – | – | – | – | – | – | –
FC(F)(F)c1ccccc1-c1cc(-c2c[nH]nc2-c2ccccn2)ccn1 [UNC10225184A] | – | – | 131.35 | 5.60 | 4.50 | 124.66 | – | – | – | – | – | – | 88.51 | 92.76
CN1CCN(CCCNc2nccc(-c3c(-c4ccc(F)cc4)nn4cc(C(N)=O)ccc34)n2)CC1 [UNC10225188A] | 87.92 | 111.81 | 94.19 | 6.08 | 19.47 | 105.02 | – | – | – | – | – | – | – | –
Cc1nn2c(=O)cc(N3CCO[C@H](C)C3)nc2n1Cc1cccc(Cl)c1Cl [UNC10225190A] | 96.99 | 93.26 | 111.47 | 6.05 | 6.51 | 79.35 | – | – | – | – | – | – | – | –
FC(F)(F)c1cc(Br)cc(Nc2nccc(-c3cnn4ncccc34)n2)c1 [UNC10225191A] | 110.85 | 116.61 | 72.92 | 6.52 | 14.10 | 83.14 | – | – | – | – | – | – | – | –
FC(F)(F)c1cc(Nc2nccc(-c3c(-c4ccc(Cl)cc4)nn4ncccc34)n2)ccc1Cl [UNC10225192A] | 96.76 | 105.34 | 86.86 | 6.87 | 11.31 | 128.18 | – | – | – | – | – | – | – | –
CCOc1nccc(-c2c(-c3ccc(F)cc3)ncn2C2CCNCC2)n1 [UNC10225194A] | 81.72 | 85.28 | 127.90 | 5.88 | 13.41 | 122.01 | – | – | – | – | – | – | – | –
Cc1c(Cn2c3ccccc3n3c(=O)cc(N4CCOCC4)nc23)cccc1C(F)(F)F [UNC10225195A] | 86.55 | 100.26 | 108.51 | 7.03 | 10.62 | 76.50 | – | – | – | – | – | – | – | –
NCC(NC(=O)c1cc(-c2cn[nH]c2)c(-c2ccnc3[nH]ccc23)s1)c1ccccc1.O=C(O)C(F)(F)F.O=C(O)C(F)(F)F (stereo not drawn) [UNC10225196A] | – | – | 81.98 | 5.85 | 18.18 | 105.21 | – | – | – | – | – | – | 69.88 | 101.21
